The text below walks through data of patent US9682954B2, “Phenanthridine derivatives, preparation methods and uses thereof” (Kunming Institute of Botany, The Chinese Academy of Sciences, priority 2013, dated 2017).

One series has as its system Huh7.5 cells. As to the kind of experiment: in vitro. As for the experimental part: (§1) (1) Toxicity Experiment of the Compound on Huh7.5:
(§2) 100 μL of Huh7.5 cells (1×10^5/ml) was inoculated in 96-wells plates and incubated in an incubator at 37° C. under 5% of CO2 and saturated humidity for 24 hrs. Then different concentration of the compound of the present invention and positive control (VX-950, telaprevir) were added respectively and incubated for a further 72 hrs. 10 μL of MTT (5 mg/mL) was added per well and incubated for another 4 hrs. After the cells were lysed with DMSO, OD570-630 […] was determined on ELIASA. In comparison with OD of the control group, inhibitory rate of each concentration on cell toxicity was calculated, and half toxic concentration of the compound was calculated with Reed-Muench method.

Another series deals with HCV. As to the kind of experiment: microbe, parasite or virus in culture. In kind it is cell-based, Hepatitis C Virus (HCV). The following applies: Huh7.5 cells infected with HCV, 72 hrs, intracellular HCV RNA by qRT-PCR, Reed-Muench method; read-out: EC50. As for the experimental part: (2) Anti-HCV Activity of the Compound in Cells:
The total RNA was extracted from the cells. The intracellular content of HCV and RNA of internal control gene GAPDH were determined by real-time fluorescence qRT-PCR.
(Real-time PCR tracks product formation cycle by cycle.)

Series [1] is described as follows: Toxicity experiment of the compound on Huh7.5 (MTT). The following applies: human, CC50, Huh7.5 cells, 72 hrs, MTT, half toxic concentration by Reed-Muench method. The protocol: as §1, §2
In a further series the test system is Wnt signaling pathway. As to the kind of experiment: Activity assay of the reporter gene (Wnt signaling pathway activation, Wnt3a conditioned medium). Format: cell-based. The note with it: for activation of the reporter gene systems of classical Wnt signaling pathway: in the way of depending on Wnt3a receptors; for Concentration of compounds for doubly synergetic activating Wnt reporter gene: with Wnt3a conditioned medium. As for the experimental part:
After 6 hours, the cells are collected and activities of the report genes are determined.
Activity Assay of the Reporter Gene
HEK293T, HCT116, SW480 or NIH3T3 cells used for activity assay of the reporter gene were inoculated into 24-wells plates respectively 24 hours before transfection then transfected following the above mentioned reference method. The amount of the plasmids used for Transfection was: 20 ng of TOPFlash, NFAT-Luc, or SRF-Luc, and 25 ng of EGFP-C1 (HEK293T); 25 ng of LEF-Luc, 75 ng of LEF1, and 25 ng of EGFP-C1 (NIH3T3); 100 ng of TOPFlash or Fopfllash and 100 ng of EGFP-C1 (HCT116 and SW480). The cells were transfected with other plasmids following experimental requirements, LacZs were added to meet a total content of 250 ng (in RNAi and plasmid co-transfection experiments, 1 μl of siRNA was added when every 100 ng/well of the plasmid was transfected). Wnt3a conditioned medium was added 18 hours after transfection to stimulate the cells for 6-8 hours, the cells were lysed using Boehringer Mannheim Luci-ferase Assay Kit (200 μl/well). Intensity of GFP proteins in cell lysates were determined as internal standards of expression quantity of the cells using fluorescence meter FL600 (BIO-TEK Inc. Winooski, Vt.), and then 20 μl of luciferase substrates were added. Luciferase activity was determined with Micro Lumate Plus (Perkin Elmer Inc. Wellesley, Mass.) luminometer. Finally, the luciferase activity was homogenized using activity of GFP.

For orientation: CC50 means the concentration giving 50% cytotoxicity. A high value points to lower toxicity to the cells. Broadly, the EC50 is the concentration needed to bring the measured effect to its halfway point. Broadly, the melting point is the temperature of the solid-liquid transition.

Compound `CCc1cccc2c1N(C)Cc1cc(OCc3cccc(OC)c3OC)c(OCc3cccc(OC)c3OC)cc1-2` [Compound 10h, 4-ethyl-5-methyl-8,9-di(2,3-dimethoxy)benzyloxy-5,6-dihydro-phenanthridine] returned a CC50 in the series on Huh7.5 cells greater than 100 µM. Also, in the series with HCV, the EC50 turned out to be 4.32 ± 0.1 µM.
In turn, `C=Cc1cccc2c1N(C)Cc1cc(OC(=O)c3ccc(Br)cc3)c(OC(=O)c3ccc(Br)cc3)cc1-2` [Compound 11n, 4-ethenyl-5-methyl-8,9-di(4-bromo)benzoyloxy-5,6-dihydro-phenanthridine] displayed a CC50 in the series on Huh7.5 cells of 82.6 ± 3.28 µM. In addition, the EC50 in the series on HCV came out at 4.58 ± 0.55 µM.
The like results for `C=Cc1cccc2c1N(C)Cc1cc(OCc3ccc(C#N)cc3)c(OCc3ccc(C#N)cc3)cc1-2` [Compound 11g, 4-ethenyl-5-methyl-8,9-di(4-cyano)benzyloxy-5,6-dihydro-phenanthridine] were, in that order, 25.9 ± 0.82 µM and greater than 0.37 µM.
The compound `C=Cc1cccc2c1N(C)Cc1cc(OC(=O)CCCC)c(OC(=O)CCCC)cc1-2` [Compound 11k, 4-ethenyl-5-methyl-8,9-divaleryoxy-5,6-dihydro-phenanthridine] yielded a 50% cytotoxic concentration (CC50) with Huh7.5 cells greater than 100 µM. Besides, the concentration for a half-maximal effect (EC50) in the series on HCV stood at 0.94 ± 0.02 µM.
Turning to `CCC[C@H](NC(=O)[C@@H]1[C@H]2CCC[C@H]2CN1C(=O)[C@@H](NC(=O)[C@@H](NC(=O)c1cnccn1)C1CCCCC1)C(C)(C)C)C(=O)C(=O)NC1CC1` [VX-950, telaprevir, reference compound], the cytotoxic concentration (CC50) at 72 h in series [1] amounted to 39.5 ± 4.9 µM. In addition, the 50% cytotoxic concentration (CC50) in the series with Huh7.5 cells (Huh7.5 cells, 72 hrs, MTT, half toxic concentration by Reed-Muench method) came to 32.5 ± 0.58 µM.
The compound `CCOc1cc2c(cc1OCC)-c1cccc(CC)c1N(C)C2` [Compound 10b, 4-ethyl-5-methyl-8,9-diethyoxy-5,6-dihydro-phenanthridine] gave a cytotoxic concentration (CC50) in the series with Huh7.5 cells greater than 100 µM. The EC50 in the series with HCV was 1.63 ± 1.22 µM.
Regarding `CCc1cccc2c1N(C)Cc1cc(OCc3cn(CCNC(C)=O)nn3)c(OCc3cn(CCNC(C)=O)nn3)cc1-2` [Compound 10r, 4-ethyl-5-methyl-8,9-bis[1-(2-acetylamino-ethyl)-1H-[1,2,3]triazol-4-ylmethoxy]-5,6-dihydro-phenanthridine], in the series on Wnt signaling pathway, the “activation of the reporter gene systems of classical Wnt signaling pathway” value (from here on “activation”) is recorded as “activate the reporter gene systems of classical Wnt signaling pathway” and the “Concentration of compounds for doubly synergetic activating Wnt reporter gene” value (“Concentration of compounds” for short) was found to be 1.25 µM.
In turn, `CCc1cccc2c1N(C)Cc1cc(OC(=O)c3ccc(Br)cc3)c(OC(=O)c3ccc(Br)cc3)cc1-2` [Compound 10p, 4-ethyl-5-methyl-8,9-di(4-bromo)benzoyloxy-5,6-dihydro-phenanthridine] gave a CC50 in the series with Huh7.5 cells greater than 100 µM. Besides, the EC50 in the series on HCV was 1.19 ± 0.02 µM.
Turning to `C=Cc1cccc2c1N(C)Cc1cc(OCc3cn(CCNC(C)=O)nn3)c(OCc3cn(CCNC(C)=O)nn3)cc1-2` [Compound 11r, 4-ethenyl-5-methyl-8,9-bis[1-(2-acetylamino-ethyl)-1H-[1,2,3]triazol-4-ylmethoxy]-5,6-dihydro-phenanthridine], in the series on Wnt signaling pathway, the “activation” value was “activate the reporter gene systems of classical Wnt signaling pathway” and the “Concentration of compounds” value came out at 5 µM.
For the compound `CCCCC(=O)Oc1cc2c(cc1OC(=O)CCCC)-c1cccc(CC)c1N(C)C2` [Compound 10m, 4-ethyl-5-methyl-8,9-divaleryoxy-5,6-dihydro-phenanthridine], the half-maximal cytotoxic concentration (CC50) in the series with Huh7.5 cells was greater than 100 µM. Also, the concentration for a half-maximal effect (EC50) with HCV stood at 9.39 ± 0.46 µM.
Take `CCc1cccc2c1N(C)Cc1cc(OCc3cn(CCN)nn3)c(OCc3cn(CCN)nn3)cc1-2` [Compound 10q, 4-ethyl-5-methyl-8,9-bis[1-(2-amino-ethyl)-1H-[1,2,3]triazol-4-ylmethoxy]-5,6-dihydro-phenanthridine]: the melting point is 196 to 197 °C. Further, in the series with Wnt signaling pathway, the “activation” value is on record as “activate the reporter gene systems of classical Wnt signaling pathway” and the “Concentration of compounds” value turned out to be 1.25 µM.
Consider `C=Cc1cccc2c1N(C)Cc1cc(OCc3cn(CCN)nn3)c(OCc3cn(CCN)nn3)cc1-2` [Compound 11q, 4-ethenyl-5-methyl-8,9-bis[1-(2-amino-ethyl)-1H-[1,2,3]triazol-4-ylmethoxy]-5,6-dihydrophenanthridine], for which, in the series on Wnt signaling pathway, the “activation” value is given as “activate the reporter gene systems of classical Wnt signaling pathway” and the “Concentration of compounds” value was 2.5 µM.
As to `C=Cc1cccc2c1N(C)Cc1cc(OCc3cccc(OC)c3OC)c(OCc3cccc(OC)c3OC)cc1-2` [Compound 11f, 4-ethenyl-5-methyl-8,9-di(2,3-dimethoxy)benzyloxy-5,6-dihydro-phenanthridine], half-maximal cytotoxicity in the series with Huh7.5 cells (CC50) was put at 32.9 ± 1.28 µM. For the same compound, the EC50 in the series with HCV came to 0.3 ± 0.01 µM.
With `CCc1cccc2c1N(C)Cc1cc3c(cc1-2)OCO3` [Compound 9, 4-ethyl-5-methyl-5,6-dihydro-[1,3]dioxolo[4,5-j]phenanthridine], in the series with Wnt signaling pathway, the “activation” value was “activate the reporter gene systems of classical Wnt signaling pathway” and the “Concentration of compounds” value was 3.75 µM.
